Results published in patent US9771366B2, “Substituted tetrahydropyrido[3′,2′:4,5]pyrrolo[1,2-a]pyrazine-2-carboxamides as RSK inhibitors” (Phoenix Molecular Designs, priority 2016, dated 2017).

How the values were obtained:
[1] = Solubility assessment at 20 mg/ml; type: physicochemical; conditions: for 20 mg/ml Solubility: dissolved in DMSO, diluted in DMEM
Procedure: Solubility is an important property for therapeutic drug candidates. Poor solubility can lead to low bioavailability resulting in suboptimal drug delivery. It can also prevent the evaluation of test agents in animals because the concentration(s) needed to achieve the desired effect cannot be achieved to poor solubility. For solubility assessments, small molecules targeting RSK were compared. For these assessments, 100 mM solutions of the compounds dissolved in DMSO were diluted in DMEM growth media (Life Technologies) supplemented with fetal bovine serum (FBS, Life Technologies) and 100 units/ml penicillin and 100 units/ml streptomycin (Life Technologies) to make 20 mg/ml solutions. Once diluted, the solutions were vortexed and examined for the formation of precipitates. […] For Compound 26, a 100 mM solution of the compound dissolved in DMSO was diluted in phosphate buffered saline (Life Technologies) to make a 20 mg/ml solution. The stock of […] was chosen because this is the upper end of what would be required to dose mice for a range of studies including MTD, PK, PD and efficacy. The pH of this solution was determined to be 2, as previously described. […] At high concentrations some RSK inhibitors were highly soluble while others were not. Compound 0 is (R)—N-(1-benzyl-1H-pyrazol-4-yl)-9-methyl-6-oxo-6,7,8,9-tetrahydropyrido[3′,2′:4,5]pyrrolo[1,2-a]pyrazine-2-carboxamide. Compound 0 was not soluble, whereas Compounds 18, 20, 21, 25 and 26 were soluble under the same conditions (Table 5).

[2] = tested on: All cell lines of Tables 6A and 6B; assay: Monolayer growth inhibition, Alamar blue, range over all cell lines; type: cell-based; conditions: 120 h, read-out: IC50 Values - Alamar Blue (5 Days), Range
Procedure: 1×10^3 cells per well were seeded for a final volume of 200 μl per well and plates were incubated for 5 days at 37° C. in a humidified incubator with 5% CO2. Following the incubation period, cell survival was quantified by Alamar blue assay (Life Technologies). Briefly, media from each well was replaced with 100 μl of phosphate buffer saline (PBS, Life Technologies) and cells were incubated with 5% Alamar blue, which incorporates a propriety redox indicator that changes colour in response to metabolic activity, for up to 2 hours. During this period of incubation, the absorbance at 570 nm and 600 nm was measured at various time points, depending on the cell line or sample. Percent survival was calculated by comparing the absorbance ratio of the test well to the control well multiplied by 100%, as indicated in the following formula:

[3] = tested on: All cell lines of Tables 7A and 7B; assay: Monolayer growth inhibition, crystal violet, range over all cell lines; type: cell-based; conditions: 120 h, read-out: IC50 Values - Crystal Violet (5 Days), Range
RSK2 = RSK2 (Homo sapiens (Human), UniProt P51812); assay: Radioisotope kinase assay (SignalChem), RSK2; type: biochemical
Procedure: The assay conditions for the RSK2 kinase target were optimized to yield acceptable enzymatic activity. In addition, the assays were optimized to give high signal-to-noise ratio.
Radioisotope assays (SignalChem) were performed for the evaluation of the kinase target profiling and all assays were performed in a designated radioactive working area. The kinase targets were RSK1, RSK2, RSK3, RSK4 and MK2.
The assay was initiated by the addition of ^33P-ATP and the reaction mixture incubated at 30° C. for 15 minutes. After the incubation period, the assay was terminated by spotting 10 μL of the reaction mixture onto Multiscreen phosphocellulose P81 plate. The Multiscreen phosphocellulose P81 plate was washed 3 times for approximately 15 minutes each in a 1% phosphoric acid solution. The radioactivity on the P81 plate was counted in the presence of scintillation fluid in a Trilux scintillation counter.
(§1) Blank controls were set up for each target kinase which included all the assay components except the addition of the appropriate substrate (which was replaced with equal volume of assay dilution buffer). The corrected activity for each target kinase was determined by removing the blank control value.

RSK1 = RSK1 (Homo sapiens (Human), UniProt Q15418); assay: Radioisotope kinase assay (SignalChem), RSK1; type: biochemical
Procedure: (§2) Radioisotope assays (SignalChem) were performed for the evaluation of the kinase target profiling and all assays were performed in a designated radioactive working area. The kinase targets were RSK1, RSK2, RSK3, RSK4 and MK2. The kinase assays (in duplicate) were performed at 30° C. for 15 minutes in a final volume of 25 μL according to the following assay reaction recipe: • Component 1: 5 μL of diluted active kinase target (100 ng per reaction) • Component 2: 5 μL of peptide substrate (0.5 μg per reaction) (for RSK1, RSK2, RSK3 and RSK4, RSK S6K substrate was used; for MK2, HSP27tide was used) • Component 3: 5 μL of kinase assay buffer • Component 4: 5 μL of compound described herein (various concentrations: 0, 0.1, 1, 10, 100 or 1000 nM or 1, 3, 10, 30, 100, 300 nM) • Component 5: 5 μL of ^33P-ATP (5 μM stock solution, 0.8 μCi; […])
(§3) The assay was initiated by the addition of ^33P-ATP and the reaction mixture incubated at 30° C. for 15 minutes. […] The radioactivity on the P81 plate was counted in the presence of scintillation fluid in a Trilux scintillation counter.
as §1

RSK3 = RSK3 (Homo sapiens (Human), UniProt Q15349); assay: Radioisotope kinase assay (SignalChem), RSK3; type: biochemical
Procedure: as §2, §3, §1

RSK4 = RSK4 (Homo sapiens (Human), UniProt Q9UK32); assay: Radioisotope kinase assay (SignalChem), RSK4; type: biochemical
Procedure: as §2, §3, §1

[4] = Colony forming unit hematopoietic stem cell assay; type: cell-based, human; conditions: human, CD34+ cells from human cord blood or peripheral blood; at 3.8 uM; read-out: cells viable in the HSC assay
Procedure: The hematopoietic colony forming cell assay was conducted based on a protocol outlined by StemCell Technologies. […] Following the addition of CD34^+ cells isolated from human cord blood or peripheral blood (StemCell Technologies) at a final concentration of 5×10^2 cells per dish, the tubes were vortexed and allowed to stand for 5 minutes at room temperature. Next, the MethoCult mixtures were dispensed into 35 mm dishes (Corning Incorporated) through blunt end needles (StemCell Technologies) and 5 ml syringes (BD Biosciences) at a volume of 1.1 ml per dish. The medium was evenly distributed across the surface of each dish by gentle tilting and rotation. The dishes were then placed in a 100 mm culture dish (Grenier Bio-One) containing additional 35 mm dishes with sterile water to maintain humidity. The culture dish was then placed at 37° C. in a humidified incubator containing 5% CO2 for 13 days. The number of myeloid and erythroid derived colonies in both the treated and control dishes were counted and compared.

HLA-DRA mRNA = assay: Immuno-oncology: HLA-DRA mRNA expression; type: cell-based, Human; conditions: MDA-MB-231 and JIMT-1 cells; Compound 16 2 or 4 uM, Compound 18 1, 2, or 4 uM
From the text: (§4) A key feature of cancer is low immunogenicity. This can occur by several mechanisms that allow the cells to escape immune recognition. […] HLA-DRA is a member of MHC-II genes and CIITA is the master regulator of MHC II transcription. Thus it was surprising that CIITA, which would be expected to regulate MHC II gene expression, was not altered by RSK inhibition. […] HLA-DRA is important for immune recognition while PD-L1 is involved in immune checkpoints.

CIITA mRNA = assay: Immuno-oncology: CIITA mRNA expression; type: cell-based, Human; conditions: MDA-MB-231 and JIMT-1 cells; Compound 16 2 or 4 uM, Compound 18 1, 2, or 4 uM
From the text: as §4

[5] = tested on: CD274, the gene that encodes PD-L1; assay: Immuno-oncology: CD274 expression in MDA-MB-231 cells; type: cell-based, Human; conditions: Compound 16 2 or 4 uM, Compound 18 1, 2 or 4 uM
From the text: as §4

[6] = tested on: CD274, the gene that encodes PD-L1; assay: Immuno-oncology: CD274 expression in JIMT-1 cells; type: cell-based, Human; conditions: 1-20 uM
From the text: as §4

[7] = tested on: phosphorylated Y-box binding protein-1 (YB-1) at serine 102 (P—YB-1S102); assay: Immunoblotting of phosphorylated YB-1 in MDA-MB-231 cells
Procedure: Following desired experimental conditions, breast cancer cell lines grown and treated in 6 well plates or 100 mm culture dishes (Grenier Bio-One) were placed on ice and the supernatant from each well was removed and the cells were washed in cold PBS. Following removal of PBS, cells were exposed to radioimmunoprecipitation assay (RIPA) buffer (50 mM Tris-HCl (pH 8), 150 mM NaCl, 1% NP-40, 0.5% sodium deoxycholate, 0.1% SDS; Fisher Scientific) supplemented with 1% phosphatase inhibitor (Fisher Scientific) and 1% protease inhibitor (Fisher Scientific) for 10 minutes. Samples were transferred to eppendorf tubes, vortexed and then centrifuged at 14 000 rpm for 10 minutes. Supernatants were collected as whole cell lysates. For mouse tumour tissues, each sample was place in a 35 mm culture dish with complete RIPA lysis buffer. The samples were diced in the buffer on ice with a sterile scalpel (VWR) and the buffer and tissue were transferred to an eppendorf tube. The samples were left on ice for 10 minutes with periodic vortexing every 2 to 3 minutes. The samples were then transferred to a Qiashredder (Qiagen) and centrifuged at 14 000 rpm for 2 minutes. The flow through was transferred to a new eppendorf tube and the samples were centrifuged again at 14 000 rpm for 5 minutes. Supernatants were collected as whole cell lysates.
For the majority of experiments in this study, 30 μg of protein per well was loaded. Samples were then resolved on SDS-PAGE (polyacrylamide gel electrophoresis) using various percentages of acrylamide gels (8%-12%), depending on the proteins of interest. […] For certain immunoblots, bands of proteins of interest were scanned and band intensity ratios were determined by densitometric analysis (ImageJ). […] To assess whether cells are actively undergoing cell death, the activity of poly ADP ribose polymerase (PARP) (1:1000 CST) was also measured using the immunoblotting method.

Chain of RSK1 (Q15418 whole entry): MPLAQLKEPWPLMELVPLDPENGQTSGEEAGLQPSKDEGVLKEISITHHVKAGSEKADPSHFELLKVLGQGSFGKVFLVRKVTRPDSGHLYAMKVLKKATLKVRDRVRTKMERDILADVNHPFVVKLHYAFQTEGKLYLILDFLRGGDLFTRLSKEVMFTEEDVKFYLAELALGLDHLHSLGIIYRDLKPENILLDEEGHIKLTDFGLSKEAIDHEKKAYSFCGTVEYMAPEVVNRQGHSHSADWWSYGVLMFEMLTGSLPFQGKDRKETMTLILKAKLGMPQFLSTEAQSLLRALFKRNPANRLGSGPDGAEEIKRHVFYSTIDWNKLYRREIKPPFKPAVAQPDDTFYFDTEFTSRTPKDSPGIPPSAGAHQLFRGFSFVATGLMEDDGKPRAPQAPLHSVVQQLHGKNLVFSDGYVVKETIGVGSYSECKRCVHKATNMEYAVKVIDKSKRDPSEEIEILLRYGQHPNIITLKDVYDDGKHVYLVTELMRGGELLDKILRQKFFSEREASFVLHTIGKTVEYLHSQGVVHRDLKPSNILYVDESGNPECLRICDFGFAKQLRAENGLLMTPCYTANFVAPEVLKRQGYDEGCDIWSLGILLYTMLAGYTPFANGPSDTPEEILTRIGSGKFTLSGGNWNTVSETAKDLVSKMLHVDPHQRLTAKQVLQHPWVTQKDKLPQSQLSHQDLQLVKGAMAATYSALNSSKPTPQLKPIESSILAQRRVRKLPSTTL
Chain of RSK2 (P51812 whole entry): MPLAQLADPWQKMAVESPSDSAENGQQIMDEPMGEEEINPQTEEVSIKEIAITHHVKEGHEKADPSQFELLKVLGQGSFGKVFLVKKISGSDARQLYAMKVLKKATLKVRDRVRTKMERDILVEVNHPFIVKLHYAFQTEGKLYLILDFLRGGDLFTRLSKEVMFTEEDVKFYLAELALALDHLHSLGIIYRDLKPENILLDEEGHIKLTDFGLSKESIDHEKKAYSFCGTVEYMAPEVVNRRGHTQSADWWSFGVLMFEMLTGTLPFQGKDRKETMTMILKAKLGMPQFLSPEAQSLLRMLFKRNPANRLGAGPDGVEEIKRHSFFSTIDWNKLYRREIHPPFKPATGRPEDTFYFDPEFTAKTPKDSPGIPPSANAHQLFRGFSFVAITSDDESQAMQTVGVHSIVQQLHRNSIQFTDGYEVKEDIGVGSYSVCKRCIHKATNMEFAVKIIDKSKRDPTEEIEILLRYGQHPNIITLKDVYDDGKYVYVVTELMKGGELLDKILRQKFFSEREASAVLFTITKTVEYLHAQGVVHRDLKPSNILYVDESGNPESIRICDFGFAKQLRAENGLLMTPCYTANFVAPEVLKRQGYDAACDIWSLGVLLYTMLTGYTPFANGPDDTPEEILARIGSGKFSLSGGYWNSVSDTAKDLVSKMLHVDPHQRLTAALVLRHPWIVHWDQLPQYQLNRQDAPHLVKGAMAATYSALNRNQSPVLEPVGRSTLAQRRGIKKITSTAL
Chain of RSK3 (Q15349 whole entry): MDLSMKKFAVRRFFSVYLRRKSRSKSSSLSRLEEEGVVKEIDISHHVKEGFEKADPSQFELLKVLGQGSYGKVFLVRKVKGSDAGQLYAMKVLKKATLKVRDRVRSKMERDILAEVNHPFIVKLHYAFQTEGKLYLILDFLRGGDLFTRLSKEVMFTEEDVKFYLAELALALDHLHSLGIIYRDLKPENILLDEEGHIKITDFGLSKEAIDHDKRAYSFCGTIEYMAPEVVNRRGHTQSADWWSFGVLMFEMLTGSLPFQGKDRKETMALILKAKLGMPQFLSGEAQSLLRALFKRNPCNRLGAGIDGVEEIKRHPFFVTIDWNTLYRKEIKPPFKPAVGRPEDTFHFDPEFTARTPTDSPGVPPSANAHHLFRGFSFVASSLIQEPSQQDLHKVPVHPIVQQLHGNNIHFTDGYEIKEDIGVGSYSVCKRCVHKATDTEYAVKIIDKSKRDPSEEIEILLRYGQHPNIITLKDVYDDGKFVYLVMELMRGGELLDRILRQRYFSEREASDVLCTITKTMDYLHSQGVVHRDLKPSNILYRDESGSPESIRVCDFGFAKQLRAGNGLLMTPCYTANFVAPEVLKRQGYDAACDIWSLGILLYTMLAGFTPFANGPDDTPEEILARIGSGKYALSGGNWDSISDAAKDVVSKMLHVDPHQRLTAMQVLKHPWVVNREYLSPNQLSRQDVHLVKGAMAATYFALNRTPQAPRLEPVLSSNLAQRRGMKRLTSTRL
Chain of RSK4 (Q9UK32 whole entry): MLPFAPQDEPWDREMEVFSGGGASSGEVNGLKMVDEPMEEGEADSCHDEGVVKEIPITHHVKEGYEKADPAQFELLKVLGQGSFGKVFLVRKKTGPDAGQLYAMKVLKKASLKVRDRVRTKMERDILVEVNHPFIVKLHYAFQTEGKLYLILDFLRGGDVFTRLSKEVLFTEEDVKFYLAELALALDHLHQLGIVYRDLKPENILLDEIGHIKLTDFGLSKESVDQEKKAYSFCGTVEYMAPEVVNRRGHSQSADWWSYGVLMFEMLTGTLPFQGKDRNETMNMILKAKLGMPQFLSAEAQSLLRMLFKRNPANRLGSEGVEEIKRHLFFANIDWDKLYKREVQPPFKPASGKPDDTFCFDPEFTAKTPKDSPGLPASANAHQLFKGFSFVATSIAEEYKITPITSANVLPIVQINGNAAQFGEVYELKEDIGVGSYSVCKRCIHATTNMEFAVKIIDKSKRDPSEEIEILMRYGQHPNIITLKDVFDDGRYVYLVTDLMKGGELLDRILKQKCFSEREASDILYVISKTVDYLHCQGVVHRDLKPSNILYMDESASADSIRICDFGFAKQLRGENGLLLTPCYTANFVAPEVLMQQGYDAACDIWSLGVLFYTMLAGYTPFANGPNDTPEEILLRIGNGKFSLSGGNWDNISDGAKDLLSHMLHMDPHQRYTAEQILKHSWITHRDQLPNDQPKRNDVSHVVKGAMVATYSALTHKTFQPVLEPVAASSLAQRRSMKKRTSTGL

In the case of C[C@@H]1CNC(=O)c2cc3ccc(C(=O)Nc4cnn(Cc5ccc(F)cc5F)c4)nc3n21 [Compound 23, (R)—N-(1-(2,4-difluorobenzyl)-1H-pyrazol-4-yl)-9-methyl-6-oxo-6,7,8,9-tetrahydropyrido[3′,2′:4,5]pyrrolo[1,2-a]pyrazine-2-carboxamide], the “20 mg/ml Solubility” value [1] is reported as “Precipitate”, the IC50 [2] is reported as 1100 to 19800 nM and the IC50 [3] is reported as 1100 to 15000 nM.

In the case of C[C@@H]1CNC(=O)c2cc3ccc(NC(=O)c4cnn(Cc5ccccc5)c4)nc3n21 [Compound 15, (R)-1-benzyl-N-(9-methyl-6-oxo-6,7,8,9-tetrahydropyrido[3′,2′:4,5]pyrrolo[1,2-a]pyrazin-2-yl)-1H-pyrazole-4-carboxamide], the IC50 (RSK2) is reported as 94 nM, the IC50 (RSK1) is reported as 23.6 nM and the IC50 (RSK3) is reported as 6 nM. The IC50 (RSK4) was 8 nM and the viability at 13 days, […] [4] was 100%.

C[C@@H]1CNC(=O)c2cc3ccc(C(=O)Nc4cnn(Cc5ccc(N)cc5)c4)nc3n21 [Compound 18, (R)—N-(1-(4-aminobenzyl)-1H-pyrazol-4-yl)-9-methyl-6-oxo-6,7,8,9-tetrahydropyrido[3′,2′:4,5]pyrrolo[1,2-a]pyrazine-2-carboxamide] showed an IC50 (RSK2) of 12 nM, an IC50 (RSK1) of 2 nM and an IC50 (RSK3) of 1.7 nM. For the same molecule, the IC50 (RSK4) was 0.3 nM, the pH ([1]; 20 mg/ml solution, DMSO diluted in DMEM) was 9 and the “20 mg/ml Solubility” value [1] was “Soluble”. For the same molecule, the “levels of HLA-DRA mRNA” value (HLA-DRA mRNA) was “elevated”, the “mRNA expression of CIITA” value (CIITA mRNA) was “little effect” and the “levels of CD274” value [5] was “reduced”. For the same molecule, the CD274 [6] was “inhibited”, the “loss of P—YB-1” value ([7]; MDA-MB-231, 0.01, 0.1, 1, or 10 uM, 24 hrs) was “dose dependent loss” and the “loss of P—YB-1” value ([7]; MDA-MB-231, 0.01-1 uM, 96 hrs) was “dose dependent loss”.
